Laboratory results: patent US20100150887A1, “Tissue Progenitor Cells That Overexpress ERG” (priority 2007, published 2010)

Test system: HERG overexpressing cells
Assay: Dofetilide responsiveness of action potentials
Settings: action potential after 1, 2 or 3 minute treatment (FIGS. 3A-D)
Description: AP is shown with-out DOF (FIG. 3A), or after 1 minute (FIG. 3B), 2 minute (FIG. 3C), or 3 minute treatments (FIG. 3D).

SMILES: CN(CCOc1ccc(NS(C)(=O)=O)cc1)CCc1ccc(NS(C)(=O)=O)cc1 [dofetilide, Dofetilide]
- sensitivity to the effects of dofetilide: sensitive
